Paper PMC9253268 (Frontiers in Immunology, 2022)
Read-outs that look alike come from different tables or passages of the source. Each block holds one molecule with its values, some of them ahead of it.

Assays:
[1] = Chemical profiling of BHGZD in sera (UFLC-Q-TOF-MS/MS); details: 30 min after the treatment of BHGZD
Text: (§1) A rapid, sensitive, and reliable method by the UFLC-Q-TOF-MS/MS system was used to identify the chemical profiling of BHGZD as described in Supplementary Materials Section 9 ([30]). The reference standards of these compounds ( Supplementary Table S2 ) were purchased from Chengdu Must Bio-technology Co., Ltd. (Chengdu, China), the National Institute for the Control of Pharmaceutical and Biological Products (Beijing, China), and Chengdu DeSiTe Biological Technology Co., Ltd. (Chengdu, China).
(§2) Sciex, Forster City, USA) with electrospray ionization source (ESI). Kinetex C18 column
(§3) (Phenomenex, 3.0×150 mm, 2.6μm, 100Å) was used to perform chromatographic
(§4) separation with a flow rate of 0.3mL/min at 40℃. A linear gradient program with mobile
(§5) phase system including solvent A (deionized water with 0.1% formic acid, v/v) and solvent
(§6) B (methanol) was described in details: solvent B (5~95%) for 40min, isocratic eluted at
(§7) 95% B for 5min，95%~5% B (40-45min), followed a post-run of 2min to equilibrate the
(§8) The instrumental settings of Q-TOF-MS/MS were described in the previous study
(§9) (9).Samples were analyzed in both positive and negative ionization modes with scanning
(§10) mas-to-charge (m/z) range from 50 to 1500. Data was collected in information-dependent
(§11) acquisition (IDA) mode and analyzed by PeakView® 2.2 software (AB Sciex, Foster City,
(§12) Chemical identifications were based on reference standards and mass spectral
(§13) library (Natural Products HR-MS/MS Spectral Library, Version 1.0, AB Sciex, Forster City,

[2] = rat, in vivo
Text: as §1, §2, §3, §4, §5, §6, §7, §8, §9, §10, §11, §12, §13

recombinant AKT1 protein = target: T1, recombinant AKT1 protein (Homo sapiens, UniProt P31749); test: Surface plasmon resonance (SPR) binding assay; details: Biacore 8K, read-out: mean KD, MG–AKT
T1 construct: His tag; purchased Abcam ab116412
T1 sequence (P31749 whole entry): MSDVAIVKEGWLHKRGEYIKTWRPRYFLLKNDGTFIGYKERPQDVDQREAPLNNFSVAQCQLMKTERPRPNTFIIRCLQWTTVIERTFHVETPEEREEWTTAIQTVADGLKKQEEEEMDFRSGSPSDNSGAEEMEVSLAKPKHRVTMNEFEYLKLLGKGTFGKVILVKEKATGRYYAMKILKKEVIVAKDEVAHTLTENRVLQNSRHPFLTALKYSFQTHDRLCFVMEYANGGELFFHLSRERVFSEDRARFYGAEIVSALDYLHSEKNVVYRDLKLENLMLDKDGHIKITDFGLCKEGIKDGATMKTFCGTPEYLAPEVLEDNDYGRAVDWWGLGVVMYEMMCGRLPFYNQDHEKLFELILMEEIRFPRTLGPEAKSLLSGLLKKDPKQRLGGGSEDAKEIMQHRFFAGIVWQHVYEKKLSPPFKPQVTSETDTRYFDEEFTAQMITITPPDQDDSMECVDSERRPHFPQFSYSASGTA
Experimental: To confirm the binding affinity of recombinant AKT1 protein and MG, SPR assay was performed with Biacore 8K (Biacore, Cytiva), and the K D value was calculated using the Biacore 8K evaluation software 2.0 (GE Healthcare). Detailed information on SPR assay is provided in Supplementary Materials Section 11 . […]
compound was greater than 9.0×106cm/s and 40% which indicated drug-like […]
Section 11 Surface plasmon resonance (SPR) assay
SPR binding assays were analyzed with Biacore 8K (Biacore, Cytiva). Materials and reagents used in SPR assays were purchased from Cytiva. The histidine-tagged AKT1 (Cat No. ab116412, Abcam, Cambridge, UK) was immobilized on the surface of Carboxymethylated (CM5) sensor chip through the standard amino coupling method. The carboxyl groups of the sensor surface were activated by injection of a solution containing 0.2M N-ethyl-N9-(3-dimethylaminopropyl) carbodiimide (EDC) and 0.05M N-hydroxysuccinimide (NHS), AKT1 in 10mM sodium acetate buffer was then injected at a flow rate of 10μL/min to couple to the sensor surface, and the remaining active sites in the […]
Sensor chips were primed twice with degassed physiological running buffer (PBS buffer). A reference flow cell was activated and blocked in the absence of AKT1. […]

[3] = In vivo pharmacokinetic analysis of MG and CA after oral BHGZD (UHPLC-QTRAP-MS/MS); details: rat plasma after oral BHGZD 21.4 g/kg each day, n = 3
Experimental: The pharmacokinetic parameters were calculated by Drug and Statistic software (Shanghai, China). Detailed information on the collection of blood samples and UHPLC-QTRAP-MS/MS conditions is provided in Supplementary Materials Section 13 . […]
Section 13 Pharmacokinetic analysis […]
administration of BHGZD, ultra-fast liquid chromatography coupled with triple quadrupole-linear ion trap composite mass spectrometry (UHPLC-QTRAP-MS/MS) system was […]
Bioanalytical Method Validation issued by Chinese Pharmacopoeia Commission in 2020.
The pharmacokinetic parameters were calculated by Drug and Statistic software […]
1) Collection of blood samples
Male Lewis rats (n=6, 6-8 weeks-old, 200±20g in weight) were purchased from Beijing Vital River Laboratory Animal Technology Co., Ltd. (SCCK 2016-0006, Beijing, China; n=3 per group, including normal control group and normal control+BHGZD treatment group).
Diet was prohibited for 12h before the experiment but water was freely available. Blood samples (~0.25mL) were collected from the retinal venous plexus into heparinized 1.5mL polythene tubes before administration and 0, 0.25, 0.5, 1, 2, 3, 4, 6, 8,12 and 24h after administration of BHGZD. The plasma samples were obtained after centrifuging at 12000rpm for 15min, and stored at -20℃ prior to analysis.
2) UHPLC-QTRAP-MS/MS conditions
Quantification analysis were performed on an ultra-high-performance liquid chromatography (Shimadzu Corp., Japan) tandem ion trap quadrupole QTRAP 6500 plus mass spectrometry (AB Sciex, USA). Chromatographic separation was conducted using a Poroshell 120 EC-C18 column (3.0×50mm, 2.7μm) at 40℃. The mobile phase was consisted of 0.1% formic acid–water (v/v, A) and methanol (B) and elution program were:
Mass spectrometry detector were conducted in negative mode and the detecting parameters were set as follows: curtain gas, 35 psi; collision gas, medium; ionspray voltage, 4500 V; temperature, 550℃; ion source gas 1 and 2, 55psi. Quantitative ion pairs were optimized for MG: m/z 421.2-301.1 (declustering potential: 63V, CE: 30eV) and for […]
Data acquisition and analysis

RAW264.7 cells [4] = test: Cell viability, CCK-8 assay; type: cell-based, mouse; details: 0.21–6.74 ng/ml MG or 0.02–0.52 ng/ml CA treatment alone
Experimental: Cell viability was analyzed with the cell counting kit-8 (CCK-8) assay kit (Beyotime Biotechnology, Shanghai, China) as described in Supplementary Materials Section 16 .
Section 16 Cell proliferation assay
Cell viability was analyzed with Cell Counting Kit-8 (CCK-8) assay kit (Beyotime Biotechnology, China). Raw264.7 cells were seeded into 96-well plate, and after […]
solution was added to each well. The absorbance was measured after 4h of incubation at […]
Section 17 Flow cytometry
To identify and quantify of pyroptosis population of Raw264.7 cells, FITC Apoptosis Detection kit I staining with both the Annexin V-fluorescein isothiocyanate and propidium iodide (PI, BD Biosciences, San Jose, CA, USA) was used in accordance with manufacturer's guidelines. Briefly, Raw264.7 cells was washed twice with cold PBS and then resuspended in 1×binding buffer at a concentration of 1x10^6 cells/mL. Then, 100µL of the solution (1x10^5 cells) was transferred to a 5 mL culture tube. Subsequently, 5µL of FITC Annexin V and 5µL PI were added into cultured tube, and vortexed and incubated for 15 min at room temperature in the dark. Finally, 400µL 1×binding buffer was added into each tube, and analyzed by flow cytometry (ACEA Bioscience, San Diego, CA, USA) and NovoExpress 1.4.1 software (ACEA Bioscience, San Diego, CA, USA) within 1h.

RAW264.7 cells [5] = test: LPS/ATP-induced pyroptosis in RAW264.7 cells (flow cytometry, FAM-FLICA, immunofluorescence, Western blotting, ELISA); type: cell-based, mouse
MH7A cells = test: LPS/ATP-induced pyroptosis in MH7A cells (TUNEL, immunofluorescence, Western blotting, ELISA); type: cell-based, human
[6] = LPS/ATP-induced RAW264.7 cells, all p < 0.05
[7] = LPS/ATP-induced, BHGZD 28.54 μg/ml, MG 1.69 ng/ml, CA 0.13 ng/ml, 24 h
[8] = LPS/ATP-induced MH7A cells, all p < 0.05

Molecule: COc1cc2c(=O)c3c(O)c([C@@H]4O[C@H](CO)[C@@H](O)[C@H](O)[C@H]4O)c(O)cc3oc2cc1O [7-O-methyl mangiferin]
quantitative detection in sera after the treatment of BHGZD [2]: detected

Molecule: COc1ccc(-c2coc3cc(O)ccc3c2=O)cc1 [formononetin]
quantitative detection in sera after the treatment of BHGZD [1]: detected

Molecule: O=C1C[C@@H](c2ccc(O)cc2)Oc2cc(O)ccc21 [liquiritigenin]
quantitative detection in sera after the treatment of BHGZD [1]: detected

Molecule: O=C(/C=C/c1ccc(O[C@@H]2O[C@H](CO)[C@@H](O)[C@H](O)[C@H]2O)cc1)c1ccc(O)cc1O [isoliquiritin]
quantitative detection in sera after the treatment of BHGZD [1]: detected

Molecule: O=c1c2cc(O)c(O)cc2oc2cc(O)c([C@@H]3O[C@H](CO)[C@@H](O)[C@H](O)[C@H]3O)c(O)c12 [MG, mangiferin]
Kd (recombinant AKT1 protein): 38.3 µM
Cmax ([3]; male, Lewis, rat, plasma, po, 21.4 g/kg, non-compartment model, read-out: Cmax): 0.132 µg/mL
AUC(0-t) ([3]; male, Lewis, 0-24 h): 0.578 ± 0.183 µg·h/mL
half-life ([3]; male, Lewis, apparent elimination half-life, read-out: t1/2z (converted)): 1.26 ± 0.23 h
AUC(0-inf) ([3]; male, Lewis): 0.579 ± 0.182 µg·h/mL
MRT last ([3]; male, Lewis, read-out: MRT(0-t)): 4.23 ± 0.3 h
MRT inf ([3]; male, Lewis, read-out: MRT(0-∞)): 4.25 ± 0.28 h
Tmax ([3]; male, Lewis, non-compartment model): 4 h
Cmax ([3]; non-compartment model, listed as Mangiferin (MG)): 0.13207 ± 0.04467 µg/mL
cell viability (CCK8) (RAW264.7 cells [4]): no cell toxicity
GSDMD-NT (RAW264.7 cells [5]; LPS/ATP-induced RAW264.7 cells, Western blotting): decreased
expression levels of NLRP3, ASC, and caspase-1 (RAW264.7 cells [5]; [6]): reduced
levels of IL-1β, IL-18, and LDH release in the supernatant (RAW264.7 cells [5]; [6]): reduced
PI positive cell rate (RAW264.7 cells [5]; LPS/ATP-induced, 1.69 ng/ml MG, 0.13 ng/ml CA, 24 h, inferior to BHGZD, all p < 0.05): prominently reduced
number of FLICA-positive RAW264.7 cells (RAW264.7 cells [5]; [7]): reduced
inhibition on cell pyroptosis induced by LPS/ATP, alone versus combination (RAW264.7 cells [5]; RAW264.7 and MH7A cells, all p < 0.05): weaker than that in the two-BAC combination treatment group
GSDMD-NT (MH7A cells; LPS/ATP-induced MH7A cells, Western blotting): decreased
expression levels of NLRP3, ASC, and caspase-1 (MH7A cells; [8]): reduced
levels of IL-1β, IL-18, and LDH release in the supernatant (MH7A cells; [8]): reduced
number of TUNEL-positive MH7A cells (MH7A cells; [7]): reduced
quantitative detection in sera after the treatment of BHGZD [1]: detected

Molecule: anemarrhensaponin I
quantitative detection in sera after the treatment of BHGZD [1]: detected

Molecule: C[C@@H](CC[C@@]1(O)O[C@H]2C[C@H]3[C@@H]4CC[C@@H]5C[C@@H](O[C@@H]6O[C@H](CO)[C@H](O)[C@H](O)[C@H]6O[C@@H]6O[C@H](CO)[C@@H](O)[C@H](O)[C@H]6O)CC[C@]5(C)[C@H]4CC[C@]3(C)[C@H]2[C@@H]1C)CO[C@@H]1O[C@H](CO)[C@@H](O)[C@H](O)[C@H]1O [timosaponin B II]
quantitative detection in sera after the treatment of BHGZD [1]: detected

Now from value to molecule:

quantitative detection in sera after the treatment of BHGZD [1]: detected
Molecule: CC1(C)[C@@H](O[C@H]2O[C@H](C(=O)O)[C@@H](O)[C@H](O)[C@H]2O[C@@H]2O[C@H](C(=O)O)[C@@H](O)[C@H](O)[C@H]2O)CC[C@]2(C)[C@H]3C(=O)C=C4[C@@H]5C[C@@](C)(C(=O)O)CC[C@]5(C)CC[C@@]4(C)[C@]3(C)CC[C@@H]12 [glycyrrhizic acid]

quantitative detection in sera after the treatment of BHGZD [1]: detected
Molecule: O=c1cc(-c2ccc(O)cc2)oc2c([C@@H]3O[C@H](CO)[C@@H](O)[C@H](O)[C@H]3O)c(O)cc(O)c12 [vitexin]

quantitative detection in sera after the treatment of BHGZD [1]: detected
Molecule: O=c1cc(-c2ccc(O)cc2)oc2cc(O)c([C@@H]3O[C@H](CO)[C@@H](O)[C@H](O)[C@H]3O)c(O)c12 [isovitexin]

quantitative detection in sera after the treatment of BHGZD [1]: detected
Molecule: O=c1c2cc(O[C@@H]3O[C@H](CO)[C@@H](O)[C@H](O)[C@H]3O)c(O)cc2oc2cc(O)c([C@@H]3O[C@H](CO)[C@@H](O)[C@H](O)[C@H]3O)c(O)c12 [neomangiferin]

quantitative detection in sera after the treatment of BHGZD [1]: detected
Molecule: O=c1cc(-c2ccc(O)cc2)oc2c([C@@H]3O[C@H](CO)[C@@H](O)[C@H](O)[C@H]3O)c(O)c([C@@H]3OC[C@H](O)[C@H](O)[C@H]3O)c(O)c12 [isoschaftoside]
